Laboratory results reported in the supplement of paper PMC10307832.

Tests used:
Experiment in all cases: relative viability (nuclei count vs DMSO), 5 days (fraction); higher = more cells survive
Alpelisib + Bortezomib = compound: Cc1nc(NC(=O)N2CCC[C@H]2C(N)=O)sc1-c1ccnc(C(C)(C)C(F)(F)F)c1 [Alpelisib] + CC(C)C[C@H](NC(=O)[C@H](Cc1ccccc1)NC(=O)c1cnccn1)B(O)O [Bortezomib] (partner 0.002 µM)
In short: (§1)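 Relative viability was taken as the ratio of nuclei in treated wells to nuclei in vehicle wells. Lung cancer cell lines in 1536-well plates received compounds by pin tool one day after seeding, either one drug alone or a fixed anchor-drug dose plus five library-drug doses (not always all listed) in √10 steps. Nuclei were counted on 4× images after 5 days of treatment, and values are medians of duplicate plates.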

OSI-027 + Crizotinib = compound: COc1cccc2cc(-c3nc([C@H]4CC[C@H](C(=O)O)CC4)n4ncnc(N)c34)[nH]c12 [OSI-027] + C[C@@H](Oc1cc(-c2cnn(C3CCNCC3)c2)cnc1N)c1c(Cl)ccc(F)c1Cl [Crizotinib] (partner 1 µM)
In short: as §1

Vemurafenib + Crizotinib = compound: CCCS(=O)(=O)Nc1ccc(F)c(C(=O)c2c[nH]c3ncc(-c4ccc(Cl)cc4)cc23)c1F [Vemurafenib] + C[C@@H](Oc1cc(-c2cnn(C3CCNCC3)c2)cnc1N)c1c(Cl)ccc(F)c1Cl [Crizotinib] (partner 1 µM)
In short: as §1

Alpelisib + Tozasertib = compound: Cc1nc(NC(=O)N2CCC[C@H]2C(N)=O)sc1-c1ccnc(C(C)(C)C(F)(F)F)c1 [Alpelisib] + Cc1cc(Nc2cc(N3CCN(C)CC3)nc(Sc3ccc(NC(=O)C4CC4)cc3)n2)n[nH]1 [Tozasertib] (partner 0.1 µM)
In short: as §1

| Cell Line | relative viability (Alpelisib + Bortezomib; first compound 0.04 µM) | relative viability (Alpelisib + Bortezomib; first compound 0.1265 µM) | relative viability (Alpelisib + Bortezomib; first compound 0.4 µM) | relative viability (Alpelisib + Bortezomib; first compound 1.265 µM) | relative viability (Alpelisib + Bortezomib; first compound 4 µM) | relative viability (OSI-027 + Crizotinib; first compound 0.01 µM) | relative viability (OSI-027 + Crizotinib; first compound 0.03162 µM) | relative viability (OSI-027 + Crizotinib; first compound 0.1 µM) | relative viability (OSI-027 + Crizotinib; first compound 0.3162 µM) | relative viability (OSI-027 + Crizotinib; first compound 1 µM) | relative viability (Vemurafenib + Crizotinib; first compound 0.03162 µM) | relative viability (Vemurafenib + Crizotinib; first compound 0.1 µM) | relative viability (Vemurafenib + Crizotinib; first compound 0.3162 µM) | relative viability (Vemurafenib + Crizotinib; first compound 1 µM) | relative viability (Alpelisib + Tozasertib; first compound 0.04 µM) | relative viability (Alpelisib + Tozasertib; first compound 0.1265 µM) | relative viability (Alpelisib + Tozasertib; first compound 0.4 µM) | relative viability (Alpelisib + Tozasertib; first compound 1.265 µM) | relative viability (Alpelisib + Tozasertib; first compound 4 µM) |
| --- | --- | --- | --- | --- | --- | --- | --- | --- | --- | --- | --- | --- | --- | --- | --- | --- | --- | --- | --- |
| A-427 | 0.889 | 0.843 | 0.978 | 0.849 | 0.893 | 0.91 | 0.821 | 0.866 | 0.673 | 0.374 | 0.819 | 0.983 | 0.919 | 0.815 | 0.225 | 0.196 | 0.244 | 0.198 | 0.194 |
| NCI-H1703 | 0.348 | 0.208 | 0.231 | 0.223 | 0.234 | 0.753 | 0.591 | 0.595 | 0.672 | 0.374 | 0.605 | 0.449 | 0.453 | 0.593 |  |  |  |  |  |
| HCC-366 | 0.974 | 1.05 | 1.02 | 0.82 | 0.419 | 0.817 | 0.315 | 0.52 | 0.415 | 0.119 | 0.465 | 0.468 |  | 0.412 | 0.151 | 0.117 | 0.13 | 0.0701 | 0.0516 |
| NCI-H661 | 0.668 | 0.933 | 0.833 | 0.593 | 0.651 | 0.998 | 1.1 | 1.14 | 1.15 | 0.645 | 0.819 | 1.07 |  | 0.949 | 0.369 | 0.362 | 0.348 | 0.337 | 0.323 |
| NCI-H2126 | 1.06 | 1.06 | 1.03 | 0.974 | 0.81 | 1.04 | 0.986 | 0.996 | 0.915 | 0.664 | 1.02 | 1.04 | 1.02 | 1.04 | 0.879 | 0.826 | 0.809 | 0.627 | 0.584 |
| NCI-H1299 | 1.05 | 1.08 | 1.03 | 1.02 | 0.966 | 0.994 | 0.984 | 0.937 | 1.04 | 0.937 | 0.951 | 0.929 | 0.9 | 0.94 |  |  |  |  |  |
| LK-2 |  |  |  |  |  | 0.199 | 0.229 | 0.273 | 0.242 | 0.203 | 0.193 | 0.202 | 0.208 | 0.245 | 0.158 | 0.164 | 0.179 | 0.167 | 0.154 |
| IA-LM | 0.985 | 0.794 | 0.794 | 0.698 | 0.728 | 0.96 | 0.578 | 0.78 | 0.249 | 0.139 | 0.694 | 0.916 | 1.1 | 0.422 |  |  |  |  |  |
| NCI-H522 |  |  |  |  |  |  |  |  |  |  |  |  |  |  | 0.519 | 0.558 | 0.527 | 0.47 | 0.37 |
| NCI-H1623 |  |  |  |  |  |  |  |  |  |  |  |  |  |  | 0.446 | 0.338 | 0.388 | 0.347 | 0.29 |
| NCI-H2342 |  |  |  |  |  |  |  |  |  |  |  |  |  |  | 0.419 | 0.473 | 0.389 | 0.401 | 0.367 |
| A549 |  |  |  |  |  | 0.782 | 0.711 | 0.704 | 0.45 | 0.167 | 0.704 | 0.717 | 0.743 | 0.717 |  |  |  |  |  |
| NCI-H1792 | 0.927 | 0.888 | 1.05 | 0.851 | 0.315 | 1.06 | 0.617 | 1.01 | 0.902 | 0.199 | 0.905 | 0.913 | 0.806 | 1 |  |  |  |  |  |
| EBC-1 | 0.574 | 0.559 | 0.584 | 0.428 | 0.423 | 0.21 | 0.21 | 0.183 | 0.184 | 0.164 | 0.188 | 0.19 | 0.197 | 0.182 |  |  |  |  |  |
| NCI-H2170 |  |  |  |  |  | 1.31 | 1.07 | 0.986 | 1.1 | 0.552 | 1.09 | 0.752 | 1.15 | 1.14 | 0.637 | 0.727 | 0.771 | 0.625 | 0.298 |
| NCI-H1563 | 0.807 | 0.85 | 0.816 | 0.687 | 0.803 | 0.835 | 0.894 | 0.768 | 0.701 | 0.733 | 0.825 | 0.744 | 0.823 | 0.852 |  |  |  |  |  |
| NCI-H1395 |  |  |  |  |  |  |  |  |  |  |  |  |  |  | 0.823 | 0.695 | 0.743 | 0.616 | 0.735 |
| NCI-H1793 |  |  |  |  |  |  |  |  |  |  |  |  |  |  | 0.275 | 0.383 | 0.312 | 0.169 | 0.188 |
| Calu-6 | 0.952 | 0.827 | 1.1 | 0.852 | 1.03 | 0.806 | 0.726 | 0.765 | 0.626 | 0.625 | 0.595 | 0.808 | 0.783 | 0.668 |  |  |  |  |  |
| NCI-H1944 |  |  |  |  |  | 1.18 | 1.18 | 1.1 | 0.918 | 0.596 | 1.03 | 0.816 | 1.09 | 1.06 | 0.251 | 0.226 | 0.267 | 0.218 | 0.171 |
| SK-MES-1 |  |  |  |  |  | 0.995 | 0.933 | 0.997 | 0.965 | 0.52 | 0.934 | 0.978 | 0.903 | 0.901 | 0.937 | 0.901 | 1.03 | 0.745 | 0.89 |
| NCI-H1648 |  |  |  |  |  |  |  |  |  |  |  |  |  |  |  | 0.68 | 0.607 | 0.27 | 0.22 |
| NCI-H358 |  |  |  |  |  | 0.566 | 0.509 | 0.552 | 0.704 | 0.348 | 0.619 |  | 0.72 | 0.528 | 0.111 | 0.114 | 0.116 | 0.0852 | 0.0831 |
| SW 900 |  |  |  |  |  |  |  |  |  |  |  |  |  |  | 0.734 | 0.5 | 0.88 | 0.571 | 0.358 |
